Reference: US12208096B2, “Effective treatment of depression in patients having impaired learning and/or memory or certain EEG characteristics with a benzylpiperazine-aminopyridine agent” (Alto Neuroscience, Inc., priority 2022, dated 2025)

Tests used:
[1] = tested on: patients having major depressive disorder; details: cited from earlier work
[2] = tested on: patients with major depression; details: total daily doses of 40 mg, 80 mg or 120 mg; 18 patients on active drug; cited from earlier work
[3] = tested on: subjects with moderate to severe depression; experiment: Additional clinical trial with NSI-189 (20 subjects, MADRS); type: in vivo, human; details: 80 mg (40 mg BID)
patients with MDD = experiment: Open-label Phase 2 clinical trial of NSI-189 as monotherapy or adjunctive treatment in depression (MADRS); type: in vivo, human
Procedure: These patients also underwent a more comprehensive cognitive battery than in the prior Phase 2 study. As above, MMRM analyses were applied on MADRS change from baseline scores in MDD patients. […] In this study, the current episode was determined by the either the prior two years, or the period within the prior two years since the last time at which two continuous months of euthymia occurred, whichever was shorter. Insufficient response to an antidepressant in the current episode was defined as less than a 50% reduction in symptoms (e.g., based on the total score on the MADRS or HDRS).
All analyses used a z=−0.75 cutoff to identify poor cognition patients (with z-scores determined with reference to a separate healthy population) in order to ensure that poor cognition patients are impaired in those tasks.
An overall cognitive performance variable comprised of measures of executive function (digit-symbol substitution task, Wisconsin card sorting task, trail making task, Corsi blocks, verbal fluency), information processing speed (flanker task, choice RT, simple RT) and verbal learning and/or memory was analyzed.
Learning and/or memory was assessed with a word list task, in which patients are given the word lists on five learning trials, and then memory is assessed through recall of those word lists immediately after learning and again after an approximately 20 minute delay (including after inclusion of a new distractor list of words). This computer-implemented task is named VM-REACT (Verbal memory recall computerized test) and is further described in Naparstek et al., J Psychiatr Res., 2019, 114:170-177 (PMID 31096177).
Another way of analyzing the PSD is through the observation that the background trend in the data can be quantified as a measure of background neural activity and has a 1/f relationship (where f is frequency). One way of quantifying this signal is termed the aperiodic exponent, which is estimated as the negative slope for the line of best fit over the 1-50 Hz range of the power spectral density in the log-log space (T. Donoghue, et al., Nat Neurosci, 23(12): 1655-1665 December 2020). Channel-wise correlation of the aperiodic exponent with treatment outcome (as percentage change in MADRS scores from baseline) was examined.

patients with PTSD = experiment: Open-label Phase 2 clinical trial of NSI-189 in PTSD (CAPS-5); type: in vivo, human; details: 40 mg BID, recall index cutoff z<=-0.5, week 4
Text: These patients underwent the same cognitive battery as patients with depression. As above, MMRM analyses were applied on the Clinician Administered PTSD Scale for DSM-5 (CAPS-5) change from baseline scores in PTSD patients. This analysis included 84 patients.
The overall sample using MMRMs that included core terms for time, baseline, group (i.e., poor versus good cognition as defined by a given measure of interest), time x group and time by baseline. The analyses shown in FIG. 12 used a z≤−0.5 cutoff on recall index scores in order to identify poor cognition patients (with z-scores determined with reference to a separate healthy population identically as for the depressed patients above). This cutoff ensured that poor cognition patients are impaired in this task.

[4] = tested on: patients having major depressive disorder; experiment: First Phase 2 clinical trial of NSI-189 in major depressive disorder (220 patients, SPCD design), original and retrospective analysis; type: in vivo, human
Procedure: A subsequent Phase 2 study was then performed on 220 patients with major depression (11). […] Treatment in either stage was given for six weeks. This design is termed a Sequential Parallel Clinical Design (SPCD) and is analyzed statistically by combining results in a pre-defined manner for outcomes differences between relevant groups (e.g., drug vs. placebo) in each of the stages individually. There are two depression outcome measures accepted by the FDA for the evaluation of adults. See the June 2018 FDA draft guidance entitled “Major Depressive Disorder: Developing Drugs for Treatment.” These are the Montgomery-Asberg Depression Rating Scale (MADRS), which was the primary outcome in this study, as well as the Hamilton Depression Rating Scale (HDRS) which was a key secondary outcome measure.
The remaining patients continued their treatment for stage 2 of the trial. Treatment in either stage was given for six weeks. Patients were eligible for study participation if they were between the ages of 18-60 years, with current major depressive disorder of at least 8 weeks duration according to the DSM-5, as diagnosed by the Structured Clinical Interview for the DSM-5 clinical trial version (SCID-5-CT) during the screen and remote assessment visits, and if they were scored at least 20 at screen, remote assessment, and baseline visits on the Montgomery-Asberg Depression Rating Scale (MADRS). The phase 2 study collected cognitive task performance data prior to treatment, and then again after both stage 1 and stage 2 of the treatment protocol. The purpose of doing so was to determine whether treatment with this compound results in improvement in cognitive functioning, as measured by a variety of behavioral measures.
Prior to the inventor's retrospective analysis, there was no consideration as to using behavioral measures to predict treatment outcome nor was there any analysis conducted to this effect. There was no consideration of using cognitive performance as a predictor but only as an outcome measure. […] The tasks in this battery included a simple reaction time (RT) task, a choice RT task, a one-back working memory task, and a visual learning task. Moreover, given the conversion to z-score, a composite cognitive task performance score could be computed by averaging the z-scores for each of the four tasks in the battery. Analyses focused on the MADRS primary outcome of the study. Statistical analyses focused on the complete trial (incorporating both stage 1 and stage 2 outcomes), using the SPCD analytic approach reported in the original study and thus aligned could be compared with the original statistical analysis plan. Mixed models repeated measures (MMRM) were used to predict change from baseline (at 2, 4, and 6 weeks) in clinical scores and included covariates for group (i.e., poor versus good cognition as defined by a given measure of interest), time, time x group, time x baseline MADRS and baseline MADRS. These covariates likewise were used in the original study, and thus results here can be compared with the all-comer results reported previously. Statistical significance was thus assessed on the primary outcome (MADRS change from baseline at 6 weeks across the SPCD design). The change in MADRS scores in the all corner (i.e. original sample) analysis is shown in FIG. 1(A) for comparison to subgroups as defined by cognitive task performance.
To examine the effect of baseline cognition on clinical outcomes, individuals were split at the mean of the average z-score across all tasks (thus a cognition composite score). This generates two groupings, which were termed poor cognition (below mean, negative z scores) or good cognition (above mean, positive z scores). The poor cognition group can also be termed to be cognitively impaired. […]

[5] = all patients, 40 mg or 80 mg daily vs placebo, full SPCD analysis or each stage alone
[6] = 80 mg, regardless of how the clinical population was defined

Question: Which “effects on several secondary measures compared to placebo” value ([1]; 40 mg dose, not corrected for multiple comparisons) does the source give for `CC(C)CCNc1ncccc1C(=O)N1CCN(Cc2ccccc2)CC1` [NSI-189, (4-benzylpiperazin-1-yl)-[2-(3-methylbutylamino)pyridin-3-yl]methanone] here?
Answer: nominally significant effects

Question: And the “efficacy on any study measure” value ([1]; 80 mg daily dose, all patients)?
Answer: did not demonstrate efficacy on any study measure

Question: What about the “antidepressant efficacy on the HDRS key secondary measure” value [1, 5] of the same molecule?
Answer: failed to demonstrate any evidence of antidepressant efficacy

Question: And the “antidepressant efficacy on the MADRS primary outcome measure” value [1, 5]?
Answer: failed to demonstrate any evidence of antidepressant efficacy

Question: And the “all-comer drug placebo difference, Cohen's d” value ([1]; all-comer population, prior Phase 2 study)?
Answer: ~0.2

Question: And the antidepressant efficacy [2]?
Answer: promising evidence for potential antidepressant efficacy

Question: What about the “MADRS improvement, poor versus good cognition patients” value ([3]; poor verbal memory z<-0.5, week 8) of the same molecule?
Answer: trend

Question: What about the “MADRS improvement, poor versus good cognition patients” value ([3]; poor verbal memory z<-0.5, weeks 2, 4, and 6) of the same molecule?
Answer: large and statistically significantly greater improvement

Question: What about the “MADRS outcome, self-reported poor versus good cognition” value (patients with MDD; 80 mg (40 mg BID), CPFQ>25 vs <=25) of the same molecule?
Answer: no significant differences

Question: And the “MADRS outcome, subjective diminishment of memory recall (CPFQ item)” value (patients with MDD; 80 mg (40 mg BID), moderate or greater vs minimal or less diminishment)?
Answer: not predictive of outcome

Question: And the “reduction in the MADRS score, poor versus good cognition patients” value (patients with MDD; 80 mg (40 mg BID), overall cognitive composite cutoff z=-0.75)?
Answer: significantly better improvement in depressive symptoms

Question: And the “Cohen's d, MADRS outcome, poor delayed recall versus good” value (patients with MDD; 80 mg (40 mg BID), week eight, p=0.004)?
Answer: 0.61

Question: And the “Cohen's d, MADRS outcome, poor immediate recall versus good” value (patients with MDD; 80 mg (40 mg BID), week eight, p=0.010)?
Answer: 0.56

Question: And the “Cohen's d, MADRS outcome, poor delayed recall versus good” value (patients with MDD; 80 mg (40 mg BID), week four, p=0.045)?
Answer: 0.40

Question: And the “Cohen's d, MADRS outcome, poor delayed recall versus good” value (patients with MDD; 80 mg (40 mg BID), week six, p=0.001)?
Answer: 0.67

Question: And the “Cohen's d, MADRS outcome, poor immediate recall versus good” value (patients with MDD; 80 mg (40 mg BID), week six, p=0.022)?
Answer: 0.48

Question: What about the “Cohen's d, MADRS outcome, poor delayed recall versus good” value (patients with MDD; 80 mg (40 mg BID), week two, p=0.028) of the same molecule?
Answer: 0.43

Question: And the “change in MADRS from baseline, low versus high aperiodic exponent patients” value (patients with MDD; 80 mg, EEG resting eyes closed, split at the median)?
Answer: significantly better depression outcome

Question: And the “remission rates, poor versus good learning and/or memory patients” value (patients with MDD; [6])?
Answer: approximately double

Question: And the “response rates, poor versus good learning and/or memory patients” value (patients with MDD; [6])?
Answer: approximately double

Question: And the “response rates on the MADRS (50% or greater reduction)” value (patients with MDD; poor learning and/or memory patients, 80 mg open label, across definitions of the clinical population)?
Answer: 60-82%

Question: What about the “CAPS-5 change from baseline, poor versus good cognition” value (patients with PTSD) of the same molecule?
Answer: significantly greater reduction in PTSD symptoms

Question: And the “drug-placebo effect size Cohen's d, change in MADRS scores” value ([4]; 80 mg arm vs placebo, poor cognition group (cognitive composite score), SPCD analysis Stage 1 and Stage 2, p=0.014)?
Answer: 0.58

Question: What about the “change in MADRS scores, either drug arm versus placebo” value ([4]; good cognition group, 40 mg or 80 mg, p=0.25) of the same molecule?
Answer: no significant differences

Question: What about the “change in MADRS scores, 40 mg group versus placebo” value ([4]; poor cognition group, p=0.39) of the same molecule?
Answer: not significant

Question: What about the “Cohen's d, change in MADRS, 80 mg arm versus placebo” value ([4]; poor cognition group, stage 1, week 2, p=0.045) of the same molecule?
Answer: 0.55

Question: What about the “Cohen's d, change in MADRS, 80 mg arm versus placebo” value ([4]; poor cognition group, stage 1, week 4, p=0.01) of the same molecule?
Answer: 0.7

Question: What about the “Cohen's d, change in MADRS, 80 mg arm versus placebo” value ([4]; poor cognition group, stage 1, week 6, p=0.03) of the same molecule?
Answer: 0.59

Question: And the “change in MADRS scores, 80 mg versus placebo” value ([4]; poor self-reported cognition, CPFQ score >25)?
Answer: no difference is seen between treatment arms
